The values below come from paper PMC9863607, “Combined Use of Antimicrobial Peptides with Antiseptics against Multidrug-Resistant Bacteria: Pros and Cons” (Pharmaceutics, 2023).

In one series the test system is E. coli ESBL 521/17. As to the kind of experiment: microbe, parasite or virus in culture. In kind it is cell-based, Escherichia coli. As to the method:
(§1) In this regard the test plates were preincubated for 1 h at 37 °C with 0.1% bovine serum albumin (BSA) in distilled water before use. Bacteria were grown overnight at 37 °C with shaking in 2.1% Müller–Hinton broth (MHB), and then a small aliquot was transferred into the fresh portion of the same medium for another 2–3 h on the day of the experiment to provide us with the log phase bacterial suspension. Concentration of bacterial cells in suspension was evaluated based on absorbance at 620 nm and diluted down to 1 × 10^6 CFU/mL with MHB. Equal volumes of the prepared bacterial suspension in MHB and two-fold serial dilutions of the antimicrobials in 10 mM sodium phosphate (Na-P) buffer (pH 7.4) with 0.1% BSA were mixed and incubated overnight at 37 °C. The lowest concentration where no bacterial growth was observed the next day under visual examination was considered the minimal inhibitory concentration. The test was repeated at least three times, and the final MIC value was established as a median result. Each experiment was conducted in triplicates. Terasaki microplates (10 µL end volume, V-shaped bottom; Sarstedt, Nümbrecht, Germany) were used.

For the next series, the system named is S. aureus 1399/17. As to the kind of experiment: microbe, parasite or virus in culture. It counts as cell-based, Staphylococcus aureus. The protocol: as §1
The subject of a further series is E. coli ML-35p. The series is described as follows: Bacterial membrane permeability assay (nitrocefin / ONPG). It counts as cell-based, Escherichia coli. An excerpt:
Monitoring the ability of the test substances or their combinations to affect bacterial membranes and enhance their permeability over time was organized using a method first proposed by Prof. Lehrer’s scientific group. The idea is based on utilizing special markers that cannot spontaneously penetrate bacterial membranes until those are damaged but would be readily processed by the bacteria’s own enzymes into products of different color once they enter. Then, the product can be spectrophotometrically detected, and the dynamics of its accumulation can be associated with the scale and swiftness of the inflicted membrane impairment. The specific bacterial strain E. coli ML-35p was designed for the procedure. It is a descendant of E. coli ML-35, first identified during lac operon studies, deficient in lactopermease but constitutively expressing cytoplasmic β-galactosidase, that was modified with a plasmid vector to additionally provide it with a periplasmic β-lactamase. These modifications create the basis for the mentioned membrane damage detection approach, as there are two specifically placed enzymes, but their lactose/galactose-based substrates cannot enter bacterial cells on their own in the absence of lactopermeases.
Nitrocefin (Calbiochem-Novabiochem, San Diego, CA, USA), which can be converted by β-lactamase into a pink-colored product detectable at 486 nm once it reaches the periplasmic space, was used as a marker of the outer membrane permeability, and ONPG (o-nitrophenyl-β-D-galactoside, Sigma, St. Louis, MO, USA), producing yellow-colored o-nitrophenyl detectable at 420 nm once hydrolyzed by β-galactosidase in the bacterial cytoplasm, was likewise used as an indicator of inner membrane damage.
An overnight culture of E. coli ML-35p grown at 37 °C in 3% Trypticase soy broth (TSB) was washed of the medium twice with 10 mM Na-P buffer (pH 7.4) via a 10 min long centrifugation at 600 g and 4 °C and diluted down in the same buffer to 1 × 10^8 CFU/mL stock concentration based on the optical density (OD) of the suspension at 620 nm (the formula being concentration [CFU/mL] = OD620 × 2.5 × 10^8). The stock was preferably used immediately or kept at 4ᵒC for no more than 1 h. Experiments were carried out in 96-well clear flat-bottom plates. The 100 µL samples containing antimicrobials or their combinations in desired concentrations, 10 mM Na-P buffer (pH 7.4), 100 mM NaCl, 20 μM of nitrocefin or 2.5 mM of ONPG, and bacteria in a final concentration of 2.5 × 10^7 CFU/mL were made in duplicates. Controls included no antimicrobial substances. Bacterial suspension was the last component and was added just before the start of the measurement. OD values at the wavelengths of 420 and 486 nm were collected once per minute for 1–2 h using SpectraMax 250 Microplate Spectrophotometer (Molecular Devices, San Jose, CA, USA); samples were maintained at 37 °C with 5 s of shaking before each read.

The subject of the next series is human erythrocytes. In kind it is cell-based. The protocol:
Hemolytic properties of the test substances and their combinations were assessed as previously described. Whole human blood was collected from healthy donors by venipuncture into sterile EDTA-covered vacuum tubes, diluted 10 times with ice-cold phosphate-buffered saline (PBS) containing 4mM EDTA for the start, and then washed out twice with still ice-cold but anticoagulant-free PBS by a 10 min long centrifugation at 300× g and 4 °C to remove plasma and anticoagulant altogether. […] Samples were incubated for 30 min at 37 °C and then supplied with 90 µL of ice-cold PBS to stop further hemolysis. Remaining RBCs or their debris were precipitated by 4 min of centrifugation at 10,000× g and room temperature, and 100 µL of the supernatants was transferred to a 96-well clear flat-bottom test plate to spectrophotometrically detect hemoglobin released from the damaged RBCs. OD was measured at 540 nm—one of the hemoglobin absorbance maxima. The samples with 6 µL of pure PBS (with no potentially hemolytic agents) were used as a 0% lysis reference point. Experimental samples were compared with 0% lysis control by the Mann–Whitney U-test (p < 0.05) to identify statistically significant hemolytic action. In case the exact level of effect was of interest, the samples with 6 µL of 5% v/v Triton X-100 in PBS were also prepared to additionally obtain a 100% lysis reference point and calculate the percentage of hemolysis in test samples as hemolysis (%) = (ODsample − OD0% lysis)/(OD100% lysis − OD0% lysis) × 100%. At least three independent repeats were performed.
The absence “–” or presence “+” of a statistically significant difference compared with the intact control once exposed to the action of combinations of AMPs and antiseptics in concentrations equal to ½ or ¼ of their individual MECH was evaluated in a series of three independent experiments.

The mark [1] stands for this setting: antiseptics and surfactants, MHB, overnight 37 °C, median of 3–4 independent experiments, prontosan as polyhexanide.
Setting [2] is: antiseptics and surfactants, 2.5% v/v RBC in PBS, 30 min, 37 °C, median of 3 independent experiments, prontosan as polyhexanide.
The mark [3] stands for this setting: intact bacteria and bacteria lysed by 4×MIC of PG-1.

Where two headings read alike, the source gives them in different places. Peptide text beside a SMILES is read from it.

Take `CC[C@H](C)[C@H](NC(=O)[C@H](CCCNC(=N)N)NC(=O)[C@@H](NC(=O)[C@@H]1CCCN1C(=O)[C@@H]1CCCN1C(=O)[C@H](CCCNC(=N)N)NC(=O)[C@H](CCCNC(=N)N)NC(=O)[C@H](Cc1ccccc1)NC(=O)[C@@H]1CCCN1C(=O)[C@H](CC(C)C)NC(=O)[C@H](CCCNC(=N)N)NC(=O)[C@H](Cc1ccccc1)NC(=O)[C@@H](N)CCCNC(=N)N)[C@@H](C)CC)C(=O)N[C@@H](Cc1c[nH]cn1)C(=O)N1CCC[C@H]1C(=O)N1CCC[C@H]1C(=O)N1CCC[C@H]1C(=O)N[C@@H](Cc1ccccc1)C(=O)N[C@@H](Cc1ccc(O)cc1)C(=O)N1CCC[C@H]1C(=O)N1CCC[C@H]1C(=O)N[C@@H](Cc1ccccc1)C(=O)N[C@@H](CCCNC(=N)N)C(=O)N[C@@H](CCCNC(=N)N)C(=O)N[C@@H](Cc1ccccc1)C(=O)N[C@@H](CC(C)C)C(=O)O` [ChBac3.4] (H-RFRLPFRRPPIRIHPPPFYPPFRRFL-OH; N-terminus assumed): the MIC with E. coli ESBL 521/17 (ESBL 521/17, 1 h) came to 3.1 µM; in the series with S. aureus 1399/17 (1399/17, 1 h) it was 3.1 µM.

For `[O-][n+]1c(CO)c(CO)[n+]([O-])c2ccccc21` [Dioxydin], the MIC turned out to be 15.6 µg/mL against E. coli ESBL 521/17 (setting [1]) and 500 µg/mL with S. aureus 1399/17 (setting [1]). Also, in the series on E. coli ML-35p (¼ MIC AMP + ¼ MIC antiseptic, poviargolum: outer membrane only, data not shown), the “Effect on the membranolytic action of AMPs” value is “did not cause significant changes in the dynamics of the membranolytic action of AMPs”. Besides, in the series with E. coli ML-35p (¼ and ½ MIC, nitrocefin (outer) and ONPG (inner membrane), 10 mM Na-P buffer pH 7.4, 100 mM NaCl, 37 °C), the “Effect on permeability of bacterial membranes for chromogenic markers, substance alone” value is given as “did not significantly increase the permeability of bacterial membranes”. For the same molecule, the MECH result with human erythrocytes is recorded as “higher than 0.5 mg/mL”. Also, in the series on human erythrocytes (setting [2]), the “MECH of hemolysis of human erythrocytes” value amounted to 500 µg/mL.

For `CC(O)(P(=O)(O)O)P(=O)(O)O` [Etidronic acid], the MIC in the series with E. coli ESBL 521/17 (Escherichia coli, ESBL521/17, antiseptics and surfactants, MHB, overnight 37 °C, median of 3–4 independent experiments, prontosan as polyhexanide, read-out: MIC) was 50000 µg/mL. Also, the MIC in the series on S. aureus 1399/17 (Staphylococcus aureus, 1399/17, antiseptics and surfactants, MHB, overnight 37 °C, median of 3–4 independent experiments, prontosan as polyhexanide, read-out: MIC) stood at 50000 µg/mL. Further, in the series on E. coli ML-35p (setting [3]), the “Interference with ONPG processing by cytoplasmic β-galactosidase” value is on record as “fully blocked the processing of ONPG” and the “Interference with nitrocefin degradation by bacterial β-lactamase” value is on record as “prevents said enzyme from splitting nitrocefin”. Further, the “MECH of hemolysis of human erythrocytes” value with human erythrocytes came out at 5000 µg/mL.

For `CC(C)C[C@H](NC(=O)[C@H](CCCNC(=N)N)NC(=O)CNC(=O)CNC(=O)[C@@H](N)CCCNC(=N)N)C(=O)N[C@H]1CSSC[C@@H](C(=O)N[C@H](C(=O)NCC(=O)N[C@@H](CCCNC(=N)N)C(N)=O)C(C)C)NC(=O)[C@H](C(C)C)NC(=O)[C@@H]2CSSC[C@H](NC(=O)[C@H](Cc3ccc(O)cc3)NC1=O)C(=O)N[C@@H](CCCNC(=N)N)C(=O)N[C@@H](CCCNC(=N)N)C(=O)N[C@@H](CCCNC(=N)N)C(=O)N[C@@H](Cc1ccccc1)C(=O)N2` [PG-1, protegrin 1], the MIC against E. coli ESBL 521/17 (ESBL 521/17, 1 h) is reported as 0.4 µM; against S. aureus 1399/17 (1399/17, 1 h), 0.4 µM. In addition, the “MECH of hemolysis of human erythrocytes” value with human erythrocytes is recorded as 0.5 µM.

Take Cocamidopropyl betaine: the MIC in the series with E. coli ESBL 521/17 (setting [1]) and in the series on S. aureus 1399/17 (setting [1]) was >50,000 µg/mL throughout. In addition, the “Interference with nitrocefin degradation by bacterial β-lactamase” value with E. coli ML-35p (setting [3]) was “block the degradation of nitrocephin by β-lactamase”. Also, the “MECH of hemolysis of human erythrocytes” value in the series on human erythrocytes (setting [2]) worked out at 1 µg/mL.
